Experimental findings from ChEMBL document CHEMBL3994587, “An insight on synthetic and medicinal aspects of pyrazolo[1,5-a]pyrimidine scaffold” (Eur J Med Chem, 2017) are described below.

Values after ≈ are worked out from the molar mass of the structure shown.

Test [1] concerns the target Vascular endothelial growth factor receptor 2 (Homo sapiens, UniProt P35968). The test is described as follows: biochemical.
Description: Inhibition of recombinant human GST-fused KDR kinase expressed in insect Sf21 cells using poly-Glu/Tyr (4:1) peptide as substrate by ECMA
A further test has as its system BHK-21. The test is described as follows: Antiproliferative activity against golden hamster BHK21 cells measured after 48 hrs by SRB assay. The format is cell-based. Conditions: Mesocricetus auratus, BHK-21, 48 h.
In another test the test system is Caco-2. The experiment in a line: Antiproliferative activity against human Caco2 cells measured after 48 hrs by SRB assay. Format: functional, cell-based. The settings on record: Caco-2, 48 h.
Test [2] is described as follows: Displacement of [3H]RO15-1788 from benzodiazepine receptor in bovine brain membranes. Format: cell membranes, Bos taurus, Membrane.
The species named for test [3] is Bos taurus. The test is described as follows: Ratio of IC50 for displacement of [3H]RO15-1788 from benzodiazepine receptor in bovine brain membranes in absence of GABA to IC50 for displacement of [3H]RO15-1788 from benzodiazepine receptor in bovine brain membranes in presence of GABA. Format: cell membranes.
The species entered for test [4] is Bos taurus. The test is described as follows: Displacement of [3H]RO15-1788 from benzodiazepine receptor in bovine brain membranes at 10 uM relative to control. The format is cell membranes. Conditions: Membrane.
The test system of another test is HT-1080. The test is described as follows: Antiproliferative activity against human HT1080 cells measured after 24 hrs by MTT assay. Format: functional, cell-based. Conditions: HT-1080, 24 h.
For a further test, the system named is Bel-7402. The test is described as follows: Antiproliferative activity against human Bel7402 cells measured after 24 hrs by MTT assay. The format is functional, cell-based. Conditions: Bel-7402, 24 h.
The next test is filed under the species Oryctolagus cuniculus. The experiment in a line: Potency index, ratio of theophylline IC50 to compound IC50 for inhibition of PDE in rabbit lung homogenates using [8-3H]cAMP as substrate measured 3 times between 3 to 12 mins. The format is tissue-based.
For test [5], the species on record is Bos taurus. The test is described as follows: Potency index, ratio of theophylline IC50 to compound IC50 for inhibition of PDE in beef heart homogenates using [8-3H]cAMP as substrate measured 3 times between 3 to 12 mins. Format: tissue-based.
The test system of a further test is Ehrlich. The experiment in a line: Cytotoxicity against mouse EAC cells assessed as cell growth inhibition measured after 2 hrs by trypan blue exclusion assay. The format is functional, cell-based.
Test [6] in a line: Displacement of [3H]RO15-1788 from benzodiazepine receptor in recombinant bovine brain membranes expressed in HEK293 cells after 1 hr. The format is cell-based, Bos taurus, Membrane.
The subject of another test is Pseudomonas aeruginosa. The experiment in a line: Antibacterial activity against Pseudomonas aeruginosa RCMB 000103 assessed as zone of inhibition at 30 ug/ml. The format is functional. Conditions: read-out: IZ.
Test [7] has as its system Syncephalastrum racemosum. The test is described as follows: Antifungal activity against Syncephalastrum racemosum 005004 assessed as zone of inhibition at 30 ug/ml. Format: functional. Conditions: read-out: IZ.
Another test deals with Geotrichum candidum. The test is described as follows: Antifungal activity against Geotrichum candidum 052008 assessed as zone of inhibition at 30 ug/ml. The format is functional. Conditions: read-out: IZ.
The next test concerns Staphylococcus aureus. The experiment in a line: Antibacterial activity against Staphylococcus aureus RCMB 000108 assessed as zone of inhibition at 30 ug/ml. Format: functional. Conditions: read-out: IZ.
Another test deals with Escherichia coli. The test is described as follows: Antibacterial activity against Escherichia coli RCMB 000106 assessed as zone of inhibition at 30 ug/ml. The format is functional. Conditions: read-out: IZ.
The next test relates to Aspergillus fumigatus. The test is described as follows: Antifungal activity against Aspergillus fumigatus RCMB 002006 assessed as zone of inhibition at 30 ug/ml. The format is functional. Conditions: read-out: IZ.
For another test, the system named is Bacillus subtilis. The test is described as follows: Antibacterial activity against Bacillus subtilis RCMB 000109 assessed as zone of inhibition at 30 ug/ml. The settings on record: read-out: IZ. The format is functional.
A further test concerns Candida albicans. The test is described as follows: Antifungal activity against Candida albicans RCMB 0005003 assessed as zone of inhibition at 30 ug/ml. Format: functional. Conditions: read-out: IZ.
Another test concerns HCT-116. The experiment in a line: Antiproliferative activity against human HCT116 cells measured after 48 hrs by SRB assay. Format: functional, cell-based. The settings on record: HCT-116, 48 h.
Another test concerns MCF7. The test is described as follows: Cytotoxicity against human MCF7 cells assessed as cell growth inhibition measured after 48 hrs by SRB assay. Conditions: MCF7, 48 h. Format: functional, cell-based.
Another test concerns A549. The experiment in a line: Cytotoxicity against human A549 cells assessed as cell growth inhibition measured after 48 hrs by SRB assay. The settings on record: A549, 48 h. The format is functional, cell-based.
The test system of the next test is HepG2. The test is described as follows: Cytotoxicity against human HepG2 cells assessed as cell growth inhibition measured after 48 hrs by SRB assay. Conditions: HepG2, 48 h. The format is functional, cell-based.
Test [8] deals with T1, Corticotropin-releasing factor receptor 1 (Homo sapiens, UniProt P34998).
T1 sequence (P34998 whole entry): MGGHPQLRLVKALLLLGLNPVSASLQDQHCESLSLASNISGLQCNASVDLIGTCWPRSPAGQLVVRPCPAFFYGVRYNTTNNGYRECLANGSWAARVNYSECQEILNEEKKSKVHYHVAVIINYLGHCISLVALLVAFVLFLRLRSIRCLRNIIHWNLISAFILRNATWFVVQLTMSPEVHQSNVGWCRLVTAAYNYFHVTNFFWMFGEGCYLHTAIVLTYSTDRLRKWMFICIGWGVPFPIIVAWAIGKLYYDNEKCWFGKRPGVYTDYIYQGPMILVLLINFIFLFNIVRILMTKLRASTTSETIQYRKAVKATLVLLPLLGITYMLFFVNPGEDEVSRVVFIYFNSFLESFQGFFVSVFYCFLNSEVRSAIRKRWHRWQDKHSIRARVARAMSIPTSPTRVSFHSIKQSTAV
The test is described as follows: Displacement of [125I-Tyr0]-CRF from recombinant human CRF1 receptor.

Sequence of Vascular endothelial growth factor receptor 2 (P35968 whole entry): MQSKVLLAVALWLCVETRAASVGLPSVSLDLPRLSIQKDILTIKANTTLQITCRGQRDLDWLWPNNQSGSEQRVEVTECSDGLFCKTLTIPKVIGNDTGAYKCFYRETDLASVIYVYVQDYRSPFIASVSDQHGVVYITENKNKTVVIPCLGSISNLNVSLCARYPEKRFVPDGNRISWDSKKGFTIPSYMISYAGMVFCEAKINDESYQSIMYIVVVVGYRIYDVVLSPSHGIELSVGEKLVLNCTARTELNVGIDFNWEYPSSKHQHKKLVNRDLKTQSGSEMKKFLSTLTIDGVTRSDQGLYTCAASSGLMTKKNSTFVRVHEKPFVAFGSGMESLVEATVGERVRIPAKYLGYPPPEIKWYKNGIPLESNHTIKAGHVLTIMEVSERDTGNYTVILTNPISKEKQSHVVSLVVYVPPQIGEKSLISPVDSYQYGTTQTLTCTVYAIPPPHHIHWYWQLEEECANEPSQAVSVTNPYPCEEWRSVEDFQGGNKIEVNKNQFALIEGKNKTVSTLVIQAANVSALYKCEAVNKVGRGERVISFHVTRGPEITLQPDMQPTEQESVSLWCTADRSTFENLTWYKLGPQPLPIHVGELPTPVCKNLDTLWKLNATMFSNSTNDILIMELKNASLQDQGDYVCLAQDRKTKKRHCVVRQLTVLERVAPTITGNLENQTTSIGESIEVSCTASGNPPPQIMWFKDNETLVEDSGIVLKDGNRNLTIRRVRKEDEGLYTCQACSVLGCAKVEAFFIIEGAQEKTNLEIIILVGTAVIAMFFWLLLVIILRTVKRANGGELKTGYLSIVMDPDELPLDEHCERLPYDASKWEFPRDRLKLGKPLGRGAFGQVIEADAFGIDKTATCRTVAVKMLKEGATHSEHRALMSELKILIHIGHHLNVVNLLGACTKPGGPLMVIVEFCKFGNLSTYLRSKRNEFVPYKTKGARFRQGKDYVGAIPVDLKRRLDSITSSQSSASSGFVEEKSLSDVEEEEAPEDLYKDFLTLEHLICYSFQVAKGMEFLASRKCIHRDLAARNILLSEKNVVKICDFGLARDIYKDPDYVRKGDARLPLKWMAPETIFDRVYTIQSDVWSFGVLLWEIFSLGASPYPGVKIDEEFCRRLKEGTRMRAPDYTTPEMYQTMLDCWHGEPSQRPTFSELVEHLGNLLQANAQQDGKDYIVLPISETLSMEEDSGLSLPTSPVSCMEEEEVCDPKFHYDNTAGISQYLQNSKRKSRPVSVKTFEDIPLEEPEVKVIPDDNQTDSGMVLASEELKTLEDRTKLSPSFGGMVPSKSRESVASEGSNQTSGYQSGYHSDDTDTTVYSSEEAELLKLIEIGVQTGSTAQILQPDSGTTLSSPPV

`c1ccc(-c2cnn3cc(-c4ccc(OCCN5CCOCC5)cc4)cnc23)cc1` displayed an IC50 in [1] of 32 nM.
Take `Cc1c(-c2ccnc3c(/N=N/c4ccc(F)cc4)c(N)nn23)sc2nc3ccccc3n12`: the IC50 was determined as 2.3 µg/mL (≈ 5.2 µM) in the test on BHK-21 and 0.5 µg/mL (≈ 1.13 µM) in the test with Caco-2.
`COc1ccc(-c2cnn3c(=O)c(-c4ccsc4)c[nH]c23)cc1`: the Ki in test [2] turned out to be 42.2 nM. Moreover, in the test filed under Bos taurus [3], the Ratio IC50 worked out at 1.25. In the test filed under Bos taurus [4], this compound returned an inhibition of 92%.
As to `N#Cc1cnn2c(Nc3cc(C(F)(F)F)cc(C(F)(F)F)c3)cc(COCCN3CCCCC3)nc12`, the IC50 came to 17.6 µM in the test with HT-1080 and 13.7 µM in the test with Bel-7402.
Regarding `Cc1cc(NCCO)n2nccc2n1`, the Ratio IC50 in the test listed under Oryctolagus cuniculus came out at 0.5; in the test listed under Bos taurus [5], 3.7.
As for `Cc1cc(C)n2nc(Nc3ccccc3)c(C(=O)Nc3ccccc3)c2n1`, the IC50 in the test with Ehrlich is 10 µg/mL (≈ 28 µM).
In the case of `CN1C(=O)CN=C(c2ccccc2)c2cc(Cl)ccc21` [DIAZEPAM], the Ki in test [6] was 10 nM.
As for `Cc1ccc(/N=N/c2c(N)nn3c(-c4ccco4)cc(-c4ccco4)nc23)cc1`, the zone of inhibition at 30 µg/mL in the test with Pseudomonas aeruginosa was 18.5 mm; in [7], 14.8 mm; with Geotrichum candidum it was 19.5 mm; with Staphylococcus aureus, 22.2 mm; in the test on Escherichia coli, 21.9 mm; in the test on Aspergillus fumigatus, 21.8 mm. The zone of inhibition at 30 µg/mL is 23.3 mm in the test on Bacillus subtilis and 18.1 mm in the test with Candida albicans.
In the test with HCT-116, `CSc1nn2c(NC3CCCCC3)cc(-c3ccccc3)nc2c1C#N` showed an IC50 of 2 nM.
Regarding `COc1ccc(Nc2nn3c(O)cc(C)nc3c2C(=O)Nc2ccc(Cl)cc2)cc1`, the values for the IC50 with MCF7, in the test on A549 and with HepG2 were 4.2 µg/mL (≈ 9.91 µM), 5.45 µg/mL (≈ 12.9 µM) and 6.1 µg/mL (≈ 14.4 µM), respectively.
Regarding `CCC(C)n1ncn(-c2ccc(N3CCN(c4ccc(OCC5COC(Cn6cncn6)(c6ccc(Cl)cc6Cl)O5)cc4)CC3)cc2)c1=O` (configuration not stated) [ITRACONAZOLE], the zone of inhibition at 30 µg/mL was 23.9 mm in test [7], 24.2 mm in the test with Geotrichum candidum, 27.4 mm in the test with Aspergillus fumigatus and 25.2 mm in the test with Candida albicans.
`CCC(CC)Nc1cc(C)nc2c(-c3ccc(C)cc3Cl)c(C)nn12`: in [8], the Ki is 1.5 nM.
`COc1ccc(Nc2nn3c(O)cc(C)nc3c2C(=O)Nc2ccccc2)cc1`: the IC50 amounted to 4.6 µg/mL (≈ 11.8 µM) in the test on MCF7, 5 µg/mL (≈ 12.8 µM) in the test with A549 and 4 µg/mL (≈ 10.3 µM) in the test on HepG2.
